In patent EP0343954B1, “Aromatic steroid 5-alpha-reductase inhibitors” (SMITHKLINE BEECHAM CORPORATION, priority 1988, dated 1989):

T1: human steroid 5-α-reductase (Homo sapiens, UniProt P31213)
T1 construct: an aliquot of prostatic particulate solution to a final volume of 0.5 ml of 50 mM sodium citrate, pH 5.0; from tissue; host or cells: hyperplastic human prostate; washed 140,000 x g particulate fraction
T1 sequence (P31213 1-254): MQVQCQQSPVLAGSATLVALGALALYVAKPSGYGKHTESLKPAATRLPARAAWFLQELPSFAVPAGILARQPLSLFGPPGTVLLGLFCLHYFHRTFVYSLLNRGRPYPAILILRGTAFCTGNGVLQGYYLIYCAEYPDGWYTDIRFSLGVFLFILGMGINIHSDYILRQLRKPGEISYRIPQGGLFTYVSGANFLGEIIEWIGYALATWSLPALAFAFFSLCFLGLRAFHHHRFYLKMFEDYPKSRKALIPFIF

B1: human steroid 5-α-reductase (Homo sapiens) (protein)
chain: MQVQCQQSPVLAGSATLVALGALALYVAKPSGYGKHTESLKPAATRLPARAAWFLQELPSFAVPAGILARQPLSLFGPPGTVLLGLFCLHYFHRTFVYSLLNRGRPYPAILILRGTAFCTGNGVLQGYYLIYCAEYPDGWYTDIRFSLGVFLFILGMGINIHSDYILRQLRKPGEISYRIPQGGLFTYVSGANFLGEIIEWIGYALATWSLPALAFAFFSLCFLGLRAFHHHRFYLKMFEDYPKSRKALIPFIF

The molecules below were run on steroid 5-α-reductase (assay: In vivo inhibition of steroid 5-α-reductase: DHT levels in rat ventral prostate (HPLC, radioimmunoassay)). Conditions: rats, dose of 20mg/kg, four hours after compound administration, p<.15.
Parameters: species or system Male Charles River CD rats
Method: One of the compounds of the invention, 17β-(N-tert-butylcarboxamide)-estr-1,3,5(10)-triene-3-carboxylic acid, also was tested for its in vivo potency in inhibiting steroid 5-α-reductase activity. Male Charles River CD rats, 48 days old, weighing approximately 200 gm were administered this compound dissolved in propylene glycol and diluted in normal saline. Following compound administration the animals were sacrificed, the ventral prostates were excised, and DHT levels were measured by the following procedure.
Prostate tissue was excised, trimmed, weighed, minced and washed with phosphate buffer. The tissue then was homogenized in phosphate buffer and extracted by addition of ethyl acetate and mixing on an orbital mixer for forty-five minutes. The ethyl acetate was evaporated, the residue was reconstituted in ethanol, and was centrifuge filtered using […] filter paper. The components then were separated using reverse-phase HPLC collecting the DHT fraction. The fraction was reduced to dryness and reconstituted in standard DHT assay buffer available from Amersham. DHT levels then were measured using standard techniques such as radioimmunoassay.
In the compound-treated rats, prostatic DHT levels were decreased forty percent relative to vehicle-treated controls (p<.15) four hours after compound administration at a dose of 20mg/kg.

For `CC(C)(C)NC(=O)[C@H]1CC[C@H]2[C@@H]3CCc4cc(C(=O)O)ccc4[C@H]3CC[C@]12C` [17β-(N-tert-Butylcarboxamide)-estr-1,3,5(10)-triene-3-carboxylic Acid], the “prostatic DHT levels decreased relative to vehicle-treated controls” value was “forty”.

Each molecule was assayed on C[C@]12CC[C@H]3[C@@H](CCC4=CC(=O)CC[C@@]43C)[C@@H]1CC[C@@H]2O (assay: purified protein, by the assay type). Conditions: other: substrate of steroid 5-α-reductase, used in equation 1.

For B1, the Km was 4.5 µM.

These molecules were tested against T1, human steroid 5-α-reductase (assay: Inhibition of human prostatic steroid 5-α-reductase: [14C]-testosterone conversion by prostatic particulate, Dixon plot). Conditions: not given.
Assay type: biochemical
Method: The potency of several compounds of the invention was tested for potency in inhibiting human steroid 5-α-reductase using tissue from hyperplastic human prostates. In determining potency in inhibiting the human enzyme, the following procedure was employed:
Frozen human prostates were thawed and minced into small pieces ( 5mm³). The tissue was homogenized in 3 to 5 volumes of 20 mM potassium phosphate, pH 6.5, buffer containing 0.33 M sucrose, 1 mM dithiothreitol, and 50 µM NADPH with a Brinkmann Polytron (Sybron Corporation, Westbury, New York). The solution was subjected to sonication for 3 to 5 minutes with a Sonifier (Branson Sonic Power Co.) followed by hand homogenization in a glass-to-glass Dounce homogenizer (Kontes Glass Company, Vineland, New Jersey).
Prostatic particles were obtained by differential centrifugation at 600 or 1000 x g for 20 minutes and 140,000 x g for 60 minutes at 4°C. The pellet obtained from the 140,000 x g centrifugation was washed with 5 to 10 tissue volumes of the buffer described above and recentrifuged at 140,000 x g. The resulting pellet was suspended in 20 mM potassium phosphate buffer, pH 6.5, containing 20% glycerol, 1 mM dithiothreitol, and 50 µM NADPH. The suspended particulate solution was stored at -80°C.
To each tube was added buffer, 20 µl of 10 mM NADPH and an aliquot of prostatic particulate solution to a final volume of 0.5 ml of 50 mM sodium citrate, pH 5.0. […] The organic layer was removed to a second test tube and evaporated to dryness in vacuo. The residue was dissolved in 20 to 30 µl chloroform, spotted on an individual lane of a 20 x 20 cm prechannelled silica gel TLC plate (Si 250F-PA, Baker Chemical) and developed twice with acetone:chloroform (1:9). The radiochemical content in the bands of the substrate and the products was determined with a BIOSCAN Imaging Scanner (Bioscan, Inc., Washington, D.C.). The percent of recovered radiolabel converted to product was calculated, from which enzyme activity was determined.
The experimentally obtained data was computer fitted to a linear function by plotting the reciprocal of the enzyme activity (1/velocity) against the variable inhibitor concentration (Dixon, M. (1953), Biochem. J., 55, 170).

In order of rising Ki:
1. CC(C)N(C(=O)[C@H]1CC[C@H]2[C@@H]3CCc4cc(C(=O)O)ccc4[C@H]3CC[C@]12C)C(C)C [17β-(N,N-Diisopropylcarboxamide)-estr-1,3,5(10)-triene-3-carboxylic Acid]  19 nM
2. CC(C)N(C(=O)[C@H]1CC[C@H]2[C@@H]3CCc4cc(CC(=O)O)ccc4[C@H]3CC[C@]12C)C(C)C [17β-(N,N-diisopropylcarboxamide)-estr-1,3,5(10)-triene-3-acetic acid]  20 nM
3. CC(C)N(C(=O)[C@H]1CC[C@H]2[C@@H]3C=Cc4cc(C(=O)O)ccc4[C@H]3CC[C@]12C)C(C)C [17β-(N,N-Diisopropylcarboxamide)-estr-1,3,5(10),6-tetraene-3-carboxylic Acid]  30 nM
4. CC(C)N(C(=O)[C@H]1CC[C@H]2c3ccc4cc(C(=O)O)ccc4c3CC[C@]12C)C(C)C [17β-(N-N-Diisopropylcarboxamide)-estr-1,3,5(10),-6,8-pentaene-3-carboxylic Acid]  40 nM
5. CC(C)(C)NC(=O)[C@H]1CC[C@H]2[C@@H]3CCc4cc(C(=O)O)ccc4[C@H]3CC[C@]12C [17β-(N-tert-Butylcarboxamide)-estr-1,3,5(10)-triene-3-carboxylic Acid]  43 nM
6. Cc1cc2c(cc1C(=O)O)CC[C@@H]1[C@@H]2CC[C@]2(C)[C@@H](C(=O)N(C(C)C)C(C)C)CC[C@@H]12 [17β-(N,N-Diisopropylcarboxamide)-2-methyl-estr-1,3,5(10)-triene-3-carboxylic Acid]  57 nM
7. CC(C)(C)NC(=O)C1=CC[C@H]2[C@@H]3CCc4cc(C(=O)O)ccc4[C@H]3CC[C@]12C [17β-(N-tert-Butylcarboxamide)-estr-1,3,5(10),-16-tetraene-3-carboxylic Acid]  60 nM
8. CC(C)N(C(=O)C1=CC[C@H]2[C@@H]3CCc4cc(C(=O)O)ccc4[C@H]3CC[C@]12C)C(C)C [17β-(N,N-Diisopropylcarboxamide)-estr-1,3,5(10),16-tetraene-3-carboxylic Acid]  70 nM
9. Cc1c(C(=O)O)ccc2c1CC[C@@H]1[C@@H]2CC[C@]2(C)[C@@H](C(=O)N(C(C)C)C(C)C)CC[C@@H]12 [17β-(N-N-Diisopropylcarboxamide)-4-methyl-estr-1,3,5(10)-triene-3-carboxylic Acid]  270 nM
